{"source": "patent US20230416765A1", "about": "“AGROBACTERIUM RHIZOGENES AND METHODS OF TRANSFORMING CELLS” (priority 2020, published 2023)", "test_system": "MSU440", "experiment": "Antibiotic susceptibility test on MSU440", "assay_type": "cell-based, Agrobacterium rhizogenes", "text": "The development of a disarmed strain of MSU440 relied on a selectable marker (an antibiotic resistance gene or the counter-selectable marker sacB). Antibiotic susceptibility test on MSU440 were formed with the antibiotics outlined in Table 5.", "key": {"[1]": {"conditions": "MSU440 response to antibiotic at 50 ug/mL"}}, "data": [{"compound": "O=C(N[C@H](CO)[C@H](O)c1ccc([N+](=O)[O-])cc1)C(Cl)Cl", "note": "[chloramphenicol]", "values": [{"measurement": "Resistant or susceptible", "setting": "MSU440 response to antibiotic at 30 ug/mL", "result": "resistant"}]}, {"compound": "gentamicin", "values": [{"measurement": "Resistant or susceptible", "setting": "MSU440 response to antibiotic at 35 ug/mL", "result": "susceptible"}]}, {"compound": "CN[C@@H]1[C@H](O)[C@H](NC)[C@H]2O[C@@]3(O)C(=O)C[C@@H](C)O[C@H]3O[C@@H]2[C@H]1O", "note": "[spectinomycin]", "values": [{"measurement": "Resistant or susceptible", "setting": "[1]", "result": "resistant"}]}, {"compound": "[H]/N=C(/N)N[C@H]1[C@H](O)[C@@H](O)[C@H](O[C@@H]2O[C@@H](C)[C@](O)(C=O)[C@H]2O[C@@H]2O[C@@H](CO)[C@H](O)[C@@H](O)[C@@H]2NC)[C@@H](N/C(N)=N\\[H])[C@@H]1O", "note": "[streptomycin]", "values": [{"measurement": "Resistant or susceptible", "setting": "[1]", "result": "resistant"}]}, {"compound": "CC1(C)S[C@@H]2[C@H](NC(=O)C(C(=O)O)c3ccccc3)C(=O)N2[C@H]1C(=O)O", "note": "(some centres unmarked) [carbenicillin]", "values": [{"measurement": "Resistant or susceptible", "setting": "MSU440 response to antibiotic at 100 ug/mL", "result": "susceptible"}]}]}
